According to PMC4358770 (Journal of medicinal chemistry, 2010):

Assays:
human NPP3 = target: T1, human NPP3 (Homo sapiens, UniProt O14638); test: NPP3 hydrolysis assay; assay type: in vitro ADME; conditions: 100 μM ATP (100% reference)
T1 sequence (O14638 1-875): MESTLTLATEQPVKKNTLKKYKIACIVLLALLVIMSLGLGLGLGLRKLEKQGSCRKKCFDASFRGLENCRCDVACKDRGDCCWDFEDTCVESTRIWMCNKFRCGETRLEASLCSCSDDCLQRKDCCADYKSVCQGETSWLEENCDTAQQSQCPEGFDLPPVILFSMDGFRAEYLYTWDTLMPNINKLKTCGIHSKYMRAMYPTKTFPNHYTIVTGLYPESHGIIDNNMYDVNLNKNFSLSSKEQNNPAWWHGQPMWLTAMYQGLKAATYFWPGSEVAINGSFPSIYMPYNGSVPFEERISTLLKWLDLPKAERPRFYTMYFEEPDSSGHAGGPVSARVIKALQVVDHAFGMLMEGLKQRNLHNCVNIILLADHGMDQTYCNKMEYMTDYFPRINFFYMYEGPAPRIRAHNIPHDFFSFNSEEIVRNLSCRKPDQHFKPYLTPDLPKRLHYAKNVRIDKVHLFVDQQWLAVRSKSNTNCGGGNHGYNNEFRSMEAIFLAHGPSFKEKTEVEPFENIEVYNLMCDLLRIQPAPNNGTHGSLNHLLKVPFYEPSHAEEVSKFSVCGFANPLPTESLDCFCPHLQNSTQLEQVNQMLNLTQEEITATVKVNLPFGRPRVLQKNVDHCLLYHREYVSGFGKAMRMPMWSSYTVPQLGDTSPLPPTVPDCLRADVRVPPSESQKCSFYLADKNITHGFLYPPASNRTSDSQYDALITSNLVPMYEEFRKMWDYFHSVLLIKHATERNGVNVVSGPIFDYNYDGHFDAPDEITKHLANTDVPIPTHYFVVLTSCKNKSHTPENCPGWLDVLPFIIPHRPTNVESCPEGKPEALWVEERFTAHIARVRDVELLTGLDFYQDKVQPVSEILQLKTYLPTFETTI

alkaline phosphatase = alkaline phosphatase (Bos taurus, UniProt P19111); test: Hydrolysis by alkaline phosphatase; conditions: bovine, calf intestine alkaline phosphatase, pH 9.8
Chain of alkaline phosphatase (P19111 20-533): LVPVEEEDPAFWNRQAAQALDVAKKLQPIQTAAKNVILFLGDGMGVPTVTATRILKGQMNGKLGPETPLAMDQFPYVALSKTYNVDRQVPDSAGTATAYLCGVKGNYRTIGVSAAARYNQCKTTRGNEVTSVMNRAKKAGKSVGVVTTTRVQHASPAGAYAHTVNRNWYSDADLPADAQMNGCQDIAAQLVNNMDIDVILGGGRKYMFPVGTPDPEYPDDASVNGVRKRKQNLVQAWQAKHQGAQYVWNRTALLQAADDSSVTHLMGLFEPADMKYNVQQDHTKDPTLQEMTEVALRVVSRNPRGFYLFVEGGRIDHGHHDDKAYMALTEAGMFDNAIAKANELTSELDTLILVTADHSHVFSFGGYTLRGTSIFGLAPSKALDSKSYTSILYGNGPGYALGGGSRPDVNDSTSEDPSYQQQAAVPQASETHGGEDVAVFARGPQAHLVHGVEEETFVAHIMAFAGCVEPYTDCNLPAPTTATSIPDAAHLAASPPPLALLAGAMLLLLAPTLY

[1] = target: calf intestine alkaline phosphatase (Bos taurus, UniProt P19111); test: Hydrolysis by alkaline phosphatase; conditions: 0.2 mg analogue/77.5 μL, 12.5 units of AP, 37 °C, 3 h
Chain of calf intestine alkaline phosphatase (P19111 20-533): as above

[2] = cited from earlier work
[3] = pKa and ionization of the terminal phosphate/phosphonate; assay type: physicochemical; conditions: pH 7.4, terminal phosphate/phosphonate

Nc1ncnc2c1ncn2[C@@H]1O[C@H](COP(=O)(O)OP(=O)(O)OP(=O)(O)O)[C@@H](O)[C@H]1O [ATP]
hydrolysis rate by NPP3 (human NPP3): 245 nmol nucl·min^−1·mg protein^−1 | half-life at 2.58 mg/mL (alkaline phosphatase): 1.4 h | degradation by alkaline phosphatase after 3 h [1]: 96% | t1/2 in human blood serum [2]: 3.6 h | fraction ionized at physiological pH [3]: 91%
